Patent publication US10875895B2, “Antibacterial cell-penetrating peptides” (Purdue Research Foundation, priority 2018, dated 2020)
Converted amounts (≈) assume the structure as drawn. Non-standard residues stand in square brackets, D forms with d. Residues, ends and D or L forms follow the SMILES beside them. *: point of attachment. X1 = O=C(O)c1cc(C(=O)*)ccc1-c1c2ccc(=O)cc-2oc2cc(O)ccc12; Pro(trans-4-guanidino) = N=C(N)N[C@H]1CN[C@H](C(=O)O)C1; Propyl(3-guanidino) = N=C(N)NCCC*; Hyp = O=C(O)[C@@H]1C[C@@H](O)CN1; Isobutyl = CC(C)C*

Experiments:
L. monocytogenes 191112 = conditions: 191112
E. cloacae 1134 = conditions: 1134
S. epidermidis NRS 101 = conditions: NRS 101
S. aureus NRS 384 = conditions: NRS 384
P. aeruginosa 48982 = conditions: 48982
S. aureus ATCC 6538 = conditions: ATCC 6538
S. aureus NRS 383 = conditions: NRS 383
A. baumannii 1747 = conditions: 1747
P. aeruginosa 50573 = conditions: 50573
S. typhimurium LT2 = conditions: LT2
P. aeruginosa 31041 = conditions: 31041
A baumannii 19606 = conditions: 19606
K. pneumoniae 1706 = conditions: 1706
E. faecium 700221 = conditions: 700221
P. aeruginosa 31040 = conditions: 31040
A. baumannii 1605 = conditions: 1605
S. flexneri 1a = assay: MIC, broth microdilution (CLSI); format: cell-based; conditions: enteric pathogens
Description: (§1) The minimum inhibitory concentration (MIC) of the peptides (in uM/ml) and control antibiotics (vancomycin and gentamicin) in μg/mL, were determined using the broth microdilution method according to the guidelines of the Clinical and Laboratory Standards Institute (CLSI) guidelines. See CLSI. 2007. Methods for dilution antimicrobial susceptibility tests for bacteria that grow aerobically; approved standard M7-A7. CLSI, Wayne, Pa.

S. aureus RN 4220 = assay: MIC, broth microdilution (CLSI); format: cell-based
Description: as §1

E. coli 21922 = conditions: 21922
S. aureus NRS 382 = conditions: NRS 382

| SMILES | MIC (L. monocytogenes 191112) | MIC (E. cloacae 1134) | MIC (S. epidermidis NRS 101) | MIC (S. aureus NRS 384) | MIC (P. aeruginosa 48982) | MIC (K. pneumonia NR 41928) | MIC (S. enteritidis) | MIC (S. aureus ATCC 6538) | MIC (S. aureus NRS 383) | MIC (K. pneumonia NR 41920) | MIC (A. baumannii 1747) | MIC (P. aeruginosa 50573) | MIC (S. typhimurium LT2) | MIC (P. aeruginosa 31041) | MIC (A baumannii 19606) | MIC (K. pneumoniae 1706) | MIC (E. faecium 700221) | MIC (P. aeruginosa 31040) | MIC (A. baumannii 1605) | MIC (E. coli 21922) | also measured |
| --- | --- | --- | --- | --- | --- | --- | --- | --- | --- | --- | --- | --- | --- | --- | --- | --- | --- | --- | --- | --- | --- |
| CC(C)CO[C@@H]1C[C@@H](C(=O)N2C[C@H](NC(=N)N)C[C@H]2C(=O)N2C[C@H](NC(=N)N)C[C@H]2C(=O)N2C[C@H](OCC(C)C)C[C@H]2C(=O)N2C[C@H](NC(=N)N)C[C@H]2C(=O)N2C[C@H](NC(=N)N)C[C@H]2C(=O)N2C[C@H](OCC(C)C)C[C@H]2C(=O)N2C[C@H](NC(=N)N)C[C@H]2C(=O)N2C[C@H](NC(=N)N)C[C@H]2C(=O)N2C[C@H](OCC(C)C)C[C@H]2C(=O)N2C[C@H](NC(=N)N)C[C@H]2C(=O)N2C[C@H](NC(=N)N)C[C@H]2C(=O)N2C[C@H](OCC(C)C)C[C@H]2C(N)=O)N(C(=O)CNC(=O)c2ccc(-c3c4ccc(=O)cc-4oc4cc(O)ccc34)c(C(=O)O)c2)C1 [Example 1] (X1-G[Hyp](Isobutyl)[Pro(trans-4-guanidino)][Pro(trans-4-guanidino)][Hyp](Isobutyl)[Pro(trans-4-guanidino)][Pro(trans-4-guanidino)][Hyp](Isobutyl)[Pro(trans-4-guanidino)][Pro(trans-4-guanidino)][Hyp](Isobutyl)[Pro(trans-4-guanidino)][Pro(trans-4-guanidino)][Hyp](Isobutyl)-NH2) | 2 µM (≈ 5.02 µg/mL) | 2 µM (≈ 5.02 µg/mL) | 1 µM (≈ 2.51 µg/mL) | 2 µM (≈ 5.02 µg/mL) | 4 µM (≈ 10 µg/mL) | 1 µM (≈ 2.51 µg/mL) | 1 µM (≈ 2.51 µg/mL) | 1 µM (≈ 2.51 µg/mL) | 2 µM (≈ 5.02 µg/mL) | 4 µM (≈ 10 µg/mL) | 0.5 µM (≈ 1.26 µg/mL) | 2 µM (≈ 5.02 µg/mL) | 1 µM (≈ 2.51 µg/mL) | 2 µM (≈ 5.02 µg/mL) | 1 µM (≈ 2.51 µg/mL) | 8 µM (≈ 20.1 µg/mL) | 1 µM (≈ 2.51 µg/mL) | 2 µM (≈ 5.02 µg/mL) | 0.5 µM (≈ 1.26 µg/mL) | 1 µM (≈ 2.51 µg/mL) | MIC (VRSA 10): 2 µM (≈ 5.02 µg/mL); MIC (VRSA 5): 2 µM (≈ 5.02 µg/mL); MIC (S. flexneri 1a): 1 µM (≈ 2.51 µg/mL); MIC (S. aureus RN 4220): 2 µM (≈ 5.02 µg/mL); MIC (S. aureus NRS 382): 2 µM (≈ 5.02 µg/mL) |
| CC(C)CO[C@@H]1C[C@@H](C(=O)N2C[C@H](OCCCNC(=N)N)C[C@H]2C(=O)N2C[C@H](OCCCNC(=N)N)C[C@H]2C(=O)N2C[C@H](OCC(C)C)C[C@H]2C(=O)N2C[C@H](OCCCNC(=N)N)C[C@H]2C(=O)N2C[C@H](OCCCNC(=N)N)C[C@H]2C(=O)N2C[C@H](OCC(C)C)C[C@H]2C(=O)N2C[C@H](OCCCNC(=N)N)C[C@H]2C(=O)N2C[C@H](OCCCNC(=N)N)C[C@H]2C(=O)N2C[C@H](OCC(C)C)C[C@H]2C(=O)N2C[C@H](OCCCNC(=N)N)C[C@H]2C(=O)N2C[C@H](OCCCNC(=N)N)C[C@H]2C(=O)N2C[C@H](OCC(C)C)C[C@H]2C(N)=O)N(C(=O)CNC(=O)c2ccc(-c3c4ccc(=O)cc-4oc4cc(O)ccc34)c(C(=O)O)c2)C1 [Example P14-LRR] (X1-G[Hyp](Isobutyl)[Hyp](Propyl(3-guanidino))[Hyp](Propyl(3-guanidino))[Hyp](Isobutyl)[Hyp](Propyl(3-guanidino))[Hyp](Propyl(3-guanidino))[Hyp](Isobutyl)[Hyp](Propyl(3-guanidino))[Hyp](Propyl(3-guanidino))[Hyp](Isobutyl)[Hyp](Propyl(3-guanidino))[Hyp](Propyl(3-guanidino))[Hyp](Isobutyl)-NH2; N-terminus and C-terminus assumed) | 8 µM (≈ 23.8 µg/mL) | 32 µM (≈ 95.2 µg/mL) | 2 µM (≈ 5.95 µg/mL) | 16 µM (≈ 47.6 µg/mL) | 32 µM (≈ 95.2 µg/mL) | >32 µM | 4 µM (≈ 11.9 µg/mL) | 16 µM (≈ 47.6 µg/mL) | 32 µM (≈ 95.2 µg/mL) | 32 µM (≈ 95.2 µg/mL) | 1 µM (≈ 2.98 µg/mL) | 16 µM (≈ 47.6 µg/mL) | 16 µM (≈ 47.6 µg/mL) | 32 µM (≈ 95.2 µg/mL) | 2 µM (≈ 5.95 µg/mL) | >32 µM | 2 µM (≈ 5.95 µg/mL) | 32 µM (≈ 95.2 µg/mL) | 1 µM (≈ 2.98 µg/mL) | 4 µM (≈ 11.9 µg/mL) | MIC (S. aureus NRS 382): 32 µM (≈ 95.2 µg/mL) |
